In the assay the test system is BLaER1 monocytes. Description: Ectopic doxycycline-inducible expression of virulence factors, IFN induction by q-RT-PCR. The format is cell-based, human. The conditions noted are these: doxycycline-inducible lentiviral expression in BLaER1 monocytes, doxycycline 24 h; gene expression by q-RT-PCR. On the procedure: BLaER1, U937 and THP-1 cells were cultured in RPMI Medium 1640 supplemented with L-glutamine, sodium pyruvate, 100 U/ml penicillin-streptomycin (Thermo Fisher) and 10% (v/v) FCS (Omega Scientific). HEK293T, U2OS and HCT116 cells were cultivated in DMEM Medium (Thermo Fisher) containing the same supplements. 1.4 million BLaER1 cells per well of a 6-well plate were trans-differentiated into monocytes for 5-6 days in medium containing 10 ng/ml of hrIL-3, 10 ng/ml hr-CSF-1 (M-CSF) (both PeproTech) and 100 nM β-Estradiol (Sigma-Aldrich) as previously described. 1.4 million THP-1 and U937 cells per well of a 6-well plate were differentiated overnight with 100 ng/ml PMA (Sigma-Aldrich). STING-deficient and corresponding control THP1 and U937 cells were a gift from Dan Stetson (University of Washington). BLaER1 cells were a gift from Thomas Graf (CRG, Barcelona, Spain) and Veit Hornung (LMU Munich, Germany). U2OS cells were a gift from Robert Tjian and Xavier Darzacq (UC Berkeley). THP1 cells were from ATCC. U937 cells were from the UC Berkeley Cell Culture Facility. HCT116 cells were a gift from David Raulet (UC Berkeley). […]
Gene expression was quantified by quantitative PCR with reverse transcription (RT-qPCR). […] SYBRGreen dye (Thermo Fisher Scientific) was used for quantitative PCR assays and analyzed with a real-time PCR system (StepOnePlus; Applied Biosystems). […]

In the case of “ICP0 D199A: predominantly nuclear variant of ICP0”, the “IFN induction (IFN response)” value was “not impaired in IFN induction”.
Consider “ICP0: key virulence factor of Herpes Simplex Virus-1, SUMO-directed E3 ubiquitin ligase; Accession No. YP_009137074.1, SEQ ID NO: 2”, for which the “IFN induction (IFN response)” value is listed as “led to an IFN response”.

Source of the values: US20240076666A1, “Immunomodulators Targeting MORC3 for Interferon Induction” (The Regents of the University of California, priority 2021, published 2024).
